Source: ChEMBL document CHEMBL1201862, “PubChem BioAssay data set” (2004)
Activity calls are given as the source filed them.

Assays:
Assay type in all cases: functional
[1] = molecular target: Serine/threonine-protein kinase PLK1 (Homo sapiens, UniProt P53350);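 further: PLK1 measured as one member of a kinome-wide profiling panel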
[2] = molecular target: Serine/threonine-protein kinase 17A (Homo sapiens, UniProt Q9UEE5)
[3] = molecular target: Interleukin-1 receptor-associated kinase 4 (Homo sapiens, UniProt Q9NWZ3)
[4] = molecular target: Mitogen-activated protein kinase 1 (Homo sapiens, UniProt P28482)
[5] = molecular target: Dual specificity protein kinase CLK2 (Homo sapiens, UniProt P49760)
[6] = molecular target: Dual specificity tyrosine-phosphorylation-regulated kinase 4 (Homo sapiens, UniProt Q9NR20)
Chain of Dual specificity tyrosine-phosphorylation-regulated kinase 4 (Q9NR20 whole entry): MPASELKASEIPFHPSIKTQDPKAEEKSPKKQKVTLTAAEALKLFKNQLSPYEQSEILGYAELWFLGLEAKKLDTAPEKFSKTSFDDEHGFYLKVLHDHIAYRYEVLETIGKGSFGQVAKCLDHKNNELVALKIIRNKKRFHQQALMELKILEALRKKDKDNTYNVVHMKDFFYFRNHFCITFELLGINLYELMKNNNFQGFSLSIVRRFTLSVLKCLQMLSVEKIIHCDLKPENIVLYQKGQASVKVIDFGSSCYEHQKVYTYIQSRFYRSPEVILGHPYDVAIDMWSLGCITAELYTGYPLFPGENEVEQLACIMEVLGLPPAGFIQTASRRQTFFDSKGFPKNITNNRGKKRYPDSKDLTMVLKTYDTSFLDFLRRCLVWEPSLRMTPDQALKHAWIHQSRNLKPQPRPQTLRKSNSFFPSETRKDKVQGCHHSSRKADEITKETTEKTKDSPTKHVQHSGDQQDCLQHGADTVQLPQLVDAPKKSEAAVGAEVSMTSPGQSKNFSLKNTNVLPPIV

Insulin receptor = Insulin receptor (Homo sapiens, UniProt P06213);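 further: insulin receptor kinase tested as one member of a kinome-wide kinase panel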
[7] = molecular target: Vascular endothelial growth factor receptor 1 (Homo sapiens, UniProt P17948);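 further: measured within a kinome-wide profiling panel, FLT1 as the panel member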
[8] = molecular target: Mitogen-activated protein kinase kinase kinase 20 (Homo sapiens, UniProt Q9NYL2)
Chain of Mitogen-activated protein kinase kinase kinase 20 (Q9NYL2 whole entry): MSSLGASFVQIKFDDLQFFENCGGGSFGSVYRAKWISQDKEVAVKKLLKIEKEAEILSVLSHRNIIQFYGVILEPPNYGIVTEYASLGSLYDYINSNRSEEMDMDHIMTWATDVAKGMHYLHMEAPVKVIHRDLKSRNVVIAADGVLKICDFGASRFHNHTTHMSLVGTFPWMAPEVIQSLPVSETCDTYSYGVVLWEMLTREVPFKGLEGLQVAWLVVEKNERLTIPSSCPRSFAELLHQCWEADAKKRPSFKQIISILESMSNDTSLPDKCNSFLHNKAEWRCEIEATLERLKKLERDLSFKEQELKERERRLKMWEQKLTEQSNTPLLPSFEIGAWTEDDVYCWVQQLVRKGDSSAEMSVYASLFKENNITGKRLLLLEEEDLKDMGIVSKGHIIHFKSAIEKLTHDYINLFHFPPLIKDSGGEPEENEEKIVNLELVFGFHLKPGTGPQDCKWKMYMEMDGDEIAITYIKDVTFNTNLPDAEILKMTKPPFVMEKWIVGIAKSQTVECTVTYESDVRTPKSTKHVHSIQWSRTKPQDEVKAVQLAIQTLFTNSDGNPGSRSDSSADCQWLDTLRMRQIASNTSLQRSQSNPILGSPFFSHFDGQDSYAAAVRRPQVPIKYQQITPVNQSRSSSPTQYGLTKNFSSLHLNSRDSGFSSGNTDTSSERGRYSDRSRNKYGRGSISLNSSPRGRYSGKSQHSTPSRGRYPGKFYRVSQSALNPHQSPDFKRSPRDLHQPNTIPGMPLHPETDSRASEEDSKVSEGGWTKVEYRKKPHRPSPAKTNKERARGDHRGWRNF

[9] = molecular target: Tyrosine-protein kinase ITK/TSK (Homo sapiens, UniProt Q08881);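 further: affinity for ITK measured as one member of a broad kinase panel profiling binding across the kinome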
[10] = molecular target: Vascular endothelial growth factor receptor 2 (Homo sapiens, UniProt P35968)
[11] = molecular target: cAMP-dependent protein kinase catalytic subunit PRKX (Homo sapiens, UniProt P51817)
[12] = molecular target: High affinity nerve growth factor receptor (Homo sapiens, UniProt P04629);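 further: NTRK1 tested as one member of a kinome-wide profiling panel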
Chain of High affinity nerve growth factor receptor (P04629 whole entry): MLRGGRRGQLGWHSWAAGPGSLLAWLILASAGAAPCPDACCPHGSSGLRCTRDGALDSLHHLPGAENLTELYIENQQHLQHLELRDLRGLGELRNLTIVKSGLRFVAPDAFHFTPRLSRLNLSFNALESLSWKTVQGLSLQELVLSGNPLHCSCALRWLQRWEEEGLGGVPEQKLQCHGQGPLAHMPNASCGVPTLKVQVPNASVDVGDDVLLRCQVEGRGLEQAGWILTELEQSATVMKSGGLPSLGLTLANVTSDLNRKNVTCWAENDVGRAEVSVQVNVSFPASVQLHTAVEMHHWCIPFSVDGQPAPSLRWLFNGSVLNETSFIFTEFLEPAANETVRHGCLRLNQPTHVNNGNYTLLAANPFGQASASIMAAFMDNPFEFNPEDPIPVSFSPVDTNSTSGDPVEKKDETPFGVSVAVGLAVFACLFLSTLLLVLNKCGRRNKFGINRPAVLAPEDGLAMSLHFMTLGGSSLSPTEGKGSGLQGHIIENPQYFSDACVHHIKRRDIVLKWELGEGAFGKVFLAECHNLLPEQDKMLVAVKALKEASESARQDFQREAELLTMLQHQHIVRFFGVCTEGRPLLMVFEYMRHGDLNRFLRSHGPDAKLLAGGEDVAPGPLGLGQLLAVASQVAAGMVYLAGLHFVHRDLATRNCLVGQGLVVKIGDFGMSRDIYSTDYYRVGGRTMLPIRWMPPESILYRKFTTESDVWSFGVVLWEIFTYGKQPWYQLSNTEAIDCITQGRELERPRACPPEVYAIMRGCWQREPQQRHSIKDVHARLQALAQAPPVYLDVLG

[13] = molecular target: Receptor tyrosine-protein kinase erbB-4 (Homo sapiens, UniProt Q15303);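 further: ERBB4 member of a kinome-wide kinase profiling panel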
[14] = molecular target: Glycogen synthase kinase-3 beta (Homo sapiens, UniProt P49841);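 further: value comes from a broad kinome profiling panel, with GSK3B as the panel member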
Chain of Glycogen synthase kinase-3 beta (P49841 whole entry): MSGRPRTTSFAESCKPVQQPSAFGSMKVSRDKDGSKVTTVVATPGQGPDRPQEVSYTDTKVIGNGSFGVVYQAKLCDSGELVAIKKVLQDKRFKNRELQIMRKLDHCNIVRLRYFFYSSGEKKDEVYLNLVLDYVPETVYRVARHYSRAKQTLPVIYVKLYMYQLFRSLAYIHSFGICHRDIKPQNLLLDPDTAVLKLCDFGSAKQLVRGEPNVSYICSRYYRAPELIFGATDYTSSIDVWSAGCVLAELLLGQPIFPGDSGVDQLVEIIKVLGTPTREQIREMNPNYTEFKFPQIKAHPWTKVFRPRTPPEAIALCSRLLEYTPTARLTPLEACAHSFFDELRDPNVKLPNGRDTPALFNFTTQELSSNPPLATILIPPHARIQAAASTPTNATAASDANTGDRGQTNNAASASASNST

[15] = molecular target: Mitogen-activated protein kinase kinase kinase kinase 4 (Homo sapiens, UniProt O95819)
Chain of Mitogen-activated protein kinase kinase kinase kinase 4 (O95819 whole entry): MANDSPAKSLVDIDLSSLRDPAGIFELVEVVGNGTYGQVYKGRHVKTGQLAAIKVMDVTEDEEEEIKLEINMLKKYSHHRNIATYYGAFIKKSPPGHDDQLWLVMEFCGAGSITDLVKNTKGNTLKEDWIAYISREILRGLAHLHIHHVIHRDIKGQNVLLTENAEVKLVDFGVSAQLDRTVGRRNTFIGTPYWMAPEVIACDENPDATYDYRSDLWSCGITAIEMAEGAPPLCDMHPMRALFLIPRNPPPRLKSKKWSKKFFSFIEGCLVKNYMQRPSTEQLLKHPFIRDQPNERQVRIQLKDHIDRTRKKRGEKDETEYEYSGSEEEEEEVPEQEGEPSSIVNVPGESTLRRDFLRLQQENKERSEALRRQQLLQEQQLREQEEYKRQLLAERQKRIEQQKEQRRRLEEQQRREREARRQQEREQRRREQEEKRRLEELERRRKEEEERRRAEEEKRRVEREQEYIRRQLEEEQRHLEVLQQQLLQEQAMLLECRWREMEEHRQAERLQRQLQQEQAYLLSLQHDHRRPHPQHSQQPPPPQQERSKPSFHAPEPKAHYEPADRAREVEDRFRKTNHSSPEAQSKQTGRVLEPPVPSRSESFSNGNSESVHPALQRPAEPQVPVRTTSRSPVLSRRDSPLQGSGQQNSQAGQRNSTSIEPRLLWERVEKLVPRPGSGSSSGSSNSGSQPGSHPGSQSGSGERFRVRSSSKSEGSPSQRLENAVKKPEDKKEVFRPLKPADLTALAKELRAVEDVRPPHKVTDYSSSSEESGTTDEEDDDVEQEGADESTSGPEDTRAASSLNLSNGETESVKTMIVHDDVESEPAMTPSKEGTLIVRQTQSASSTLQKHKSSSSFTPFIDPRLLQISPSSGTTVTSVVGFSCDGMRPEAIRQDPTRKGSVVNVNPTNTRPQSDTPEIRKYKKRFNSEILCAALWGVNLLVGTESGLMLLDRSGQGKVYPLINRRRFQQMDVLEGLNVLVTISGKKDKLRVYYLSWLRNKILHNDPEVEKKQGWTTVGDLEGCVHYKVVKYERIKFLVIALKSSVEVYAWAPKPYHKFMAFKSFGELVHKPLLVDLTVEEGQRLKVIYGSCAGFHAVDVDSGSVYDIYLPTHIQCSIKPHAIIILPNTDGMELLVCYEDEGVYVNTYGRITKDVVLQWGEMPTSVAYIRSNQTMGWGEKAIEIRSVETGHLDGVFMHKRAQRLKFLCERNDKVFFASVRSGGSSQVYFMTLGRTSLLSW

[16] = molecular target: Fibroblast growth factor receptor 1 (Homo sapiens, UniProt P11362)
Chain of Fibroblast growth factor receptor 1 (P11362 whole entry): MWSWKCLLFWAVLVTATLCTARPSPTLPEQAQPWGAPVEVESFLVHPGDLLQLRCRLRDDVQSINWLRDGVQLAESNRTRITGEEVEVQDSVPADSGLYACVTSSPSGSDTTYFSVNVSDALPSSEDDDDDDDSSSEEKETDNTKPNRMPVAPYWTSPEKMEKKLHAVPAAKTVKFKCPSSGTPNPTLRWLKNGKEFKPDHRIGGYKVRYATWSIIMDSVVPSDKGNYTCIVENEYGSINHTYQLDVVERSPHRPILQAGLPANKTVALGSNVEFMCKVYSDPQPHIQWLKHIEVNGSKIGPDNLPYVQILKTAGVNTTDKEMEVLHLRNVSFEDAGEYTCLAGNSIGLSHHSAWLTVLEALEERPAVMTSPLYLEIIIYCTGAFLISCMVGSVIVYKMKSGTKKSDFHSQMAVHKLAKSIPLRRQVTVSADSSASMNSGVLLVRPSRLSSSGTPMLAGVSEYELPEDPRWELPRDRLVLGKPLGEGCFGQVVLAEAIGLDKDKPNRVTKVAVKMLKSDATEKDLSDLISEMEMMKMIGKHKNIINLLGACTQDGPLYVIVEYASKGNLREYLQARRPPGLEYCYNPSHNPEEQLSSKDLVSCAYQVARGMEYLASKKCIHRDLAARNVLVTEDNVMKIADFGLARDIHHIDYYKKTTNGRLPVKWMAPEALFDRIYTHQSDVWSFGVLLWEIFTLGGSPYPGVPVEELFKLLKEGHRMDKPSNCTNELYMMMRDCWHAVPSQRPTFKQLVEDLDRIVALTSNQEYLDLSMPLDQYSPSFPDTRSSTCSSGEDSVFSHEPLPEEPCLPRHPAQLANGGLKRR

[17] = molecular target: Serine/threonine-protein kinase PAK 4 (Homo sapiens, UniProt O96013);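 further: value obtained within a kinome profiling panel in which PAK4 was one of the panel members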
[18] = molecular target: Mast/stem cell growth factor receptor Kit (Homo sapiens, UniProt P10721);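 further: KIT entry within a kinase panel assay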

Chain of Serine/threonine-protein kinase 17A (Q9UEE5 whole entry): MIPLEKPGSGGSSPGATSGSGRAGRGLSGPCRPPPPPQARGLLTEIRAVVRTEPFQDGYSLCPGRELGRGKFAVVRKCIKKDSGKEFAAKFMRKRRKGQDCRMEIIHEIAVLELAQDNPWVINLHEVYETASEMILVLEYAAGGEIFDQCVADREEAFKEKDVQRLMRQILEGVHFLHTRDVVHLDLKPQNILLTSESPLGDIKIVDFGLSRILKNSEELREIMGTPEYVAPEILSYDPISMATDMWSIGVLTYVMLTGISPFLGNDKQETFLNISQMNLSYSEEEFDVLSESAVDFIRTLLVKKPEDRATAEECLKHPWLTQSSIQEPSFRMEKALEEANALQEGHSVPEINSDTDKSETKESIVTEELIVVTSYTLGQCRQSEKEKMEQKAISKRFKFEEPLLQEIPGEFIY

Ki [1]: > 7940 nM (inactive)
Ki [2]: 794 nM (active)
Ki [3]: 5.01 nM (active)
Ki [4]: 501 nM (active)
Ki [5]: 39.8 nM (active)
Ki [6]: 158 nM (active)
Ki (Insulin receptor): > 5010 nM (inactive)
Ki [7]: > 398 nM (inactive)
Ki [8]: > 7940 nM (inactive)
Ki [9]: > 1580 nM (inactive)
Ki [10]: 7940 nM (active)
Ki [11]: 31.6 nM (active)
Ki [12]: 631 nM (active)
Ki [13]: > 3980 nM (inactive)
Ki [14]: 200 nM (active)
Ki [15]: 31.6 nM (active)
Ki [16]: > 5010 nM (inactive)
Ki [17]: 100 nM (active)
Ki [18]: > 1260 nM (inactive)
SMILES: NC1CCCCC1Nc1nccc(-c2c[nH]c3ncccc23)n1 (centres undefined)
